Results reported in US11667602B2, “Compounds and their use” (AstraZeneca AB, priority 2020, dated 2023).
≈ marks a conversion by molar mass, not a printed value. Like-named read-outs stand apart in the source and are kept apart here.

Tests used:
[1] = Human Plasma Protein Binding (Test B); type: in vitro ADME; details: fraction unbound (fu)
Procedure: Human Plasma Protein Binding (Test B)
The assay was conducted according to the Human Plasma Protein Binding Assay described in pages 167-170 of Wernevik, J. et al., “A Fully Integrated Assay Panel for Early Drug Metabolism and Pharmacokinetics Profiling”, Assay and Drug Development Technologies, 2020, 18(4), 157-179. Data are reported in Table 36 as fraction unbound (fu) (% free). Where the assay was run multiple times for the same compound, the arithmetic mean is reported.

Solubility (Test F) = type: physicochemical; details: arithmetic mean if run multiple times
Procedure: The assay was conducted according to the Solubility Assay described in pages 164-167 of Wernevik, J. et al., “A Fully Integrated Assay Panel for Early Drug Metabolism and Pharmacokinetics Profiling”, Assay and Drug Development Technologies, 2020, 18(4), 157-179. Data are reported in Table 36 as solubility ([…]. Where the assay was run multiple times for the same compound, the arithmetic mean is reported.

[2] = Human Liver Microsomal Stability (Test C); type: in vitro ADME; details: human, liver microsomes
Procedure: Human Liver Microsomal Stability (Test C)
The assay was conducted according to the Human Liver Microsome Stability Assay described in pages 170-174 of Wernevik, J. et al., “A Fully Integrated Assay Panel for Early Drug Metabolism and Pharmacokinetics Profiling”, Assay and Drug Development Technologies, 2020, 18(4), 157-179. Data are reported in Table 36 as CLint (μl/min/mg protein). Where the assay was run multiple times for the same compound, the arithmetic mean is reported.

[3] = Rat Hepatocyte Stability (Test E); type: in vitro ADME; details: rat, hepatocytes, geometric mean if run multiple times
Procedure: Rat Hepatocyte Stability (Test E)
The assay was conducted according to the Rat Hepatocyte Stability Assay described in pages 170-174 of Wernevik, J. et al., “A Fully Integrated Assay Panel for Early Drug Metabolism and Pharmacokinetics Profiling”, Assay and Drug Development Technologies, 2020, 18(4), 157-179. Data are reported in Table 36 as mean Clint(μl/min/10^6 cells). Where the assay was run multiple times for the same compound, the geometric mean is reported.

human RXFP1 = target: T1, human RXFP1 (Homo sapiens, UniProt Q9HBX9); experiment: RXFP1 Hu cAMP (Test A); type: cell-based; design: expressed in transfected cells; host or cells: Jump-In T-REx CHO-K1 cells (ThermoFisher), induced with 10 ng/ml doxycycline for 24 h
T1 sequence (Q9HBX9 1-757): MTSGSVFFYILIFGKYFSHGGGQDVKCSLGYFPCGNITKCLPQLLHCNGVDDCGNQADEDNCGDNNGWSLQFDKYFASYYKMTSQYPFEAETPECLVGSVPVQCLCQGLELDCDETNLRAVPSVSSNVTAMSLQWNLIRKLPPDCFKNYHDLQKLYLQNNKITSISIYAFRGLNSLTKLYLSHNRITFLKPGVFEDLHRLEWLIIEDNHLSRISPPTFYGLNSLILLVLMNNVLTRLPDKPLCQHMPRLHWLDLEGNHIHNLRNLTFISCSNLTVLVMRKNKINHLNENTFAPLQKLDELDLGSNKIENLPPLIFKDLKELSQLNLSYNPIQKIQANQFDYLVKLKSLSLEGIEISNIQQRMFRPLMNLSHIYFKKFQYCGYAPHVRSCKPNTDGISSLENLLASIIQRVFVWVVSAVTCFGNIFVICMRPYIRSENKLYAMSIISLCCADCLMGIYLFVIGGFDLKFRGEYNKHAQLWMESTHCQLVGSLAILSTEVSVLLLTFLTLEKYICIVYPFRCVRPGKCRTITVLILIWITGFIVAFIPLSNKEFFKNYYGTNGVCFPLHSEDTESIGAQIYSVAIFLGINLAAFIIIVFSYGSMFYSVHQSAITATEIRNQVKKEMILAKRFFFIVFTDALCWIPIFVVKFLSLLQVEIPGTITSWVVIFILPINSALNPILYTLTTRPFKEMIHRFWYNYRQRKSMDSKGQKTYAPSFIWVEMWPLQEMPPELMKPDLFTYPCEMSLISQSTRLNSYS
In short: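 Read-out is HTRF signal, inversely proportional to cAMP, converted to cAMP amount by standard curve. Stimulation occurred in inducible CHO-K1 cells expressing the human receptor with phosphodiesterases blocked by 0.5 mM IBMX.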

[4] = RXFP1 Hu cAMP, read-out: Test A EC50

SMILES	Test B Human Plasma Protein Binding (% free) [1]	solubility (Solubility (Test F))	microsomal CLint [2]	hepatocyte CLint [3]	Test A Sinf (human RXFP1; RXFP1 Hu cAMP)	EC50 (human RXFP1; [4])	EC50 (human RXFP1; Test A EC50, RXFP1 Hu cAMP)
COc1cc(F)c(O[C@H]2CC[C@@](C)(C(=O)O)CC2)cc1C(=O)N[C@@H]1[C@H]2CC[C@H](C2)[C@@H]1C(=O)NCC1(C)CCC1 [Example 1, (1S,4s)-4-(2-Fluoro-4-methoxy-5-(((1S,2R,3S,4R)-3-(((1-methylcyclobutyl)methyl)carbamoyl)bicyclo[2.2.1]heptan-2-yl)carbamoyl)phenoxy)-1-methylcyclohexane-1-carboxylic acid]	4.3 % free	> 500 µM	–	–	–	–	–
COc1cc(F)c(O[C@H]2CC[C@@](C)(C(=O)O)CC2)cc1C(=O)N[C@@H]1[C@H]2CC[C@H](C2)[C@@H]1C(=O)N[C@@H](C)C(C)(C)C [Example 45]	6.9 % free	960 µM (≈ 525 µg/mL)	15 µL/min/mg	12 µL/min/1e6 cells	–	–	–
COc1cc(F)c(O[C@H]2CC[C@@H](C(=O)O)CC2)cc1C(=O)N[C@@H]1[C@H]2CC[C@H](C2)[C@@H]1C(=O)Nc1cc(C(F)(F)F)ccc1Cl [Example 26]	–	250 µM (≈ 157 µg/mL)	31 µL/min/mg	38 µL/min/1e6 cells	105%	190 nM	–
COc1cc(F)c(O[C@H]2C[C@@](C)(C(=O)O)C2)cc1C(=O)N[C@@H]1[C@H]2CC[C@H](C2)[C@@H]1C(=O)NCC1(C)CCC1 [Example 149, (1S,3s)-3-(2-fluoro-4-methoxy-5-(((1S,2R,3S,4R)-3-(((1-methylcyclobutyl)methyl)carbamoyl)bicyclo[2.2.1]heptan-2-yl)carbamoyl)phenoxy)-1-methylcyclobutane-1-carboxylic acid]	11 % free	840 µM (≈ 434 µg/mL)	7.6 µL/min/mg	11 µL/min/1e6 cells	–	–	–
COc1cc(F)c(O[C@H]2CC[C@@](C)(C(=O)O)CC2)cc1C(=O)N[C@@H]1CCC[C@@H]1C(=O)N[C@@H](C)C(C)C [Example 55, (1S,4s)-4-(2-Fluoro-4-methoxy-5-(((1R,2S)-2-(((S)-3-methylbutan-2-yl)carbamoyl)cyclopentyl)carbamoyl)phenoxy)-1-methylcyclohexane-1-carboxylic acid]	–	> 1000 µM	< 3 µL/min/mg	16 µL/min/1e6 cells	100%	> 8400 nM	–
COc1cc(F)c(O[C@H]2CC[C@@](C)(C(=O)O)CC2)cc1C(=O)N[C@@H]1CCC[C@@H]1C(=O)N[C@H](C)C(C)C [Example 60]	–	> 1000 µM	7 µL/min/mg	11 µL/min/1e6 cells	105%	–	–
COc1cc(F)c(O[C@H]2CC[C@@](C)(C(=O)O)CC2)cc1C(=O)N[C@@H]1CCC[C@@H]1C(=O)NC(C(C)C)C(C)C [Example 62]	–	> 1000 µM	94 µL/min/mg	55 µL/min/1e6 cells	93%	> 4200 nM	–
COc1cc(F)c(O[C@H]2CC[C@@](C)(C(=O)O)CC2)cc1C(=O)N[C@@H]1CCC[C@@H]1C(=O)NCC(C)(C)C [Example 57, (1S,4s)-4-(2-Fluoro-4-methoxy-5-(((1R,2S)-2-(neopentylcarbamoyl)cyclopentyl)carbamoyl)phenoxy)-1-methylcyclohexane-1-carboxylic acid]	–	> 1000 µM	4.9 µL/min/mg	11 µL/min/1e6 cells	99%	660 nM	–
COc1cc(F)c(-c2ccc(CCC(=O)O)cc2)cc1C(=O)N[C@@H]1[C@H]2CC[C@H](C2)[C@@H]1C(=O)Nc1cccc(S(=O)(=O)C(F)(F)F)c1 [Example 244]	–	240 µM (≈ 159 µg/mL)	53 µL/min/mg	36 µL/min/1e6 cells	111%	100 nM	–
CC1(CNC(=O)[C@H]2[C@@H]3CC[C@@H](C3)[C@H]2NC(=O)c2cc(O[C@H]3CC[C@@](C)(C(=O)O)CC3)c(F)cc2OCF)CCC1 [Example 4, (1S,4s)-4-(2-Fluoro-4-(fluoromethoxy)-5-(((1S,2R,3S,4R)-3-(((1-methylcyclobutyl)methyl)carbamoyl)bicyclo[2.2.1]heptan-2-yl)carbamoyl)phenoxy)-1-methylcyclohexane-1-carboxylic acid]	–	> 1000 µM	36 µL/min/mg	6.9 µL/min/1e6 cells	103%	–	4.7 nM
COc1cc(F)c(O[C@H]2CC[C@@](C)(C(=O)O)CC2)cc1C(=O)N[C@H]1[C@@H]2CC[C@@H](C2)[C@H]1C(=O)NCC1(C)CCC1 [Example 3, (1R,4s)-4-(2-Fluoro-4-methoxy-5-(((1R,2S,3R,4S)-3-(((1-methylcyclobutyl)methyl)carbamoyl)bicyclo[2.2.1]heptan-2-yl)carbamoyl)phenoxy)-1-methylcyclohexane-1-carboxylic acid]	3.7 % free	860 µM (≈ 468 µg/mL)	–	–	–	–	–
COc1cc(F)c(O[C@H]2CC[C@@](C)(C(=O)O)CC2)cc1C(=O)N[C@@H]1CCC[C@@H]1C(=O)N[C@@H](C)C(C)(C)C [Example 61]	–	> 1000 µM	7.4 µL/min/mg	13 µL/min/1e6 cells	96%	15000 nM	–
COc1cc(F)c(CC2CCC(C)(C(=O)O)CC2)cc1C(=O)NC1C2CCC(C2)C1C(=O)NCC1(C)CCC1 [Example 205, (1R,4r)-4-(2-fluoro-4-methoxy-5-(((1S,2R,3S,4R)-3-(((1-methylcyclobutyl)methyl)carbamoyl)bicyclo[2.2.1]heptan-2-yl)carbamoyl)benzyl)-1-methylcyclohexane-1-carboxylic acid]	0.58 % free	180 µM (≈ 97.7 µg/mL)	49 µL/min/mg	26 µL/min/1e6 cells	–	–	–
COc1cc(F)c(C[C@H]2CC[C@@](C)(C(=O)O)CC2)cc1C(=O)N[C@@H]1[C@H]2CC[C@H](C2)[C@@H]1C(=O)NCC1(C)CCC1 [Example 204, (1S,4s)-4-(2-fluoro-4-methoxy-5-(((1S,2R,3S,4R)-3-(((1-methylcyclobutyl)methyl)carbamoyl)bicyclo[2.2.1]heptan-2-yl)carbamoyl)benzyl)-1-methylcyclohexane-1-carboxylic acid]	0.29 % free	61 µM (≈ 33.1 µg/mL)	78 µL/min/mg	18 µL/min/1e6 cells	–	–	–
COc1cc(F)c(O[C@H]2CC[C@@](C)(C(=O)O)CC2)cc1C(=O)N[C@@H]1CCC[C@@H]1C(=O)NCC1(C)CCCCC1 [Example 64]	–	870 µM (≈ 476 µg/mL)	74 µL/min/mg	67 µL/min/1e6 cells	107%	–	–
COc1cc(F)c(O[C@H]2CC[C@@](C)(C(=O)O)CC2)cc1C(=O)N[C@@H]1CCC[C@@H]1C(=O)NCC(C)C [Example 66]	–	> 1000 µM	< 3 µL/min/mg	12 µL/min/1e6 cells	101%	–	–
COc1cc(F)c(-c2ccc(C(=O)O)c(C)c2)cc1C(=O)N[C@@H]1[C@H]2CC[C@H](C2)[C@@H]1C(=O)Nc1cccc(S(=O)(=O)C(F)(F)F)c1 [Example 246]	–	860 µM (≈ 558 µg/mL)	20 µL/min/mg	16 µL/min/1e6 cells	85%	–	–
COc1cc(F)c(O[C@H]2CC[C@@](C)(C(=O)O)CC2)cc1C(=O)N[C@@H]1CCC[C@@H]1C(=O)N[C@@H](C)C1(C)CC1 (racemic) [Example 63]	–	610 µM (≈ 316 µg/mL)	11 µL/min/mg	19 µL/min/1e6 cells	–	> 50000 nM	–
